Rate constant data for two compounds are collected here from US20050208139A1 (Ascend Therapeutics, Inc., priority 2004, published 2005).

This series can be described thus: Isomerization of 4-hydroxy tamoxifen in hydroalcoholic solutions at 25°, 30° and 40° C., Z/E isomers by HPLC (Example 1). The class given is physicochemical. As for the experimental part: Hydroalcoholic solutions containing 4-hydroxy tamoxifen were prepared, based on the following gel formula: […]
In the hydroalcoholic solutions, phosphate buffer was substituted for Klucel. The composition of the buffer was as follows:
At each of the stated concentrations, separate solutions containing Z-4-hydroxy tamoxifen or a mixture of Z- and E-4-hydroxy tamoxifen were prepared.
Each solution was subdivided into three parts in 30 ml brown glass bottles, then placed in ovens regulated at 25°, 30°, and 40° C.
The relative amounts of Z- and E-4-hydroxy tamoxifen isomers were determined at the initiation of the study and at 2-week, 1-month, 2-month, 3-month, 4-month and 5-month time points.
Operating parameters for the HPLC were as follows:
The order of elution was as follows: • 4-OHT E: retention time about 13.3 min • 4-OHT Z: retention time about 15.0 min.
Percentages of each isomer were calculated using the following formulas: [formula] [formula] D. Data fitting:
The reversible isomerization reaction and the equilibrium reaches are lied by the following relationship: [formula] where • A0=initial concentration of the reagent • Aeq=concentration of the same reagent at equilibrium • A=the concentration of A at time t • kf=forward rate constant • kr=reverse rate constant • t=time measured in months
A plot of log [formula] as a function of time gives a straight line fit with a slope of [formula] and a y-intercept of 0. E. Results

Setting [1] is: 25° C., nominal 4-hydroxy tamoxifen concentration (Z + E) in solution 0.02%.
The mark [2] stands for this setting: 25° C., nominal concentration (Z + E) 0.04%.
[3] abbreviates: 25° C., nominal concentration (Z + E) 0.06%.
The mark [4] stands for this setting: 25° C., nominal concentration (Z + E) 0.08%.
Setting [5] is: 25° C., nominal concentration (Z + E) 0.10%.
Where [6] appears, read: 30° C., nominal concentration (Z + E) 0.02%.
Where [7] appears, read: 30° C., nominal concentration (Z + E) 0.04%.
[8] abbreviates: 30° C., nominal concentration (Z + E) 0.06%.
The mark [9] stands for this setting: 30° C., nominal concentration (Z + E) 0.08%.
[10] abbreviates: 30° C., nominal concentration (Z + E) 0.10%.
[11] abbreviates: 40° C., nominal concentration (Z + E) 0.02%.
Setting [12] is: 40° C., nominal concentration (Z + E) 0.04%.
Where [13] appears, read: 40° C., nominal concentration (Z + E) 0.06%.
Where [14] appears, read: 40° C., nominal concentration (Z + E) 0.08%.
The mark [15] stands for this setting: 40° C., nominal concentration (Z + E) 0.10%.

For `CC/C(=C(\c1ccc(O)cc1)c1ccc(OCCN(C)C)cc1)c1ccccc1` [Batch PANCHIM 7421], the Rate constant under setting [1] came out at 0.0225 month^−1; the Rate constant under setting [2] came out at 0.0637 month^−1; the Rate constant under setting [3] came out at 0.0886 month^−1; the Rate constant under setting [4] is listed as 0.1352 month^−1; the Rate constant under setting [5] worked out at 0.1827 month^−1; the Rate constant under setting [6] is reported as 0.0457 month^−1. For the same compound, the Rate constant under setting [7] turned out to be 0.0864 month^−1; the Rate constant under setting [8] is reported as 0.1487 month^−1; the Rate constant under setting [9] was found to be 0.1900 month^−1; the Rate constant under setting [10] was found to be 0.2568 month^−1; the Rate constant under setting [11] is recorded as 0.1097 month^−1; the Rate constant under setting [12] was found to be 0.2287 month^−1. Besides, the Rate constant runs as follows: under setting [13], 0.3877 month^−1; under setting [14], 0.5311 month^−1; under setting [15], 0.6300 month^−1.

Consider `CC/C(=C(\c1ccc(O)cc1)c1ccc(OCCN(C)C)cc1)c1ccccc1` [ICI batch Bx 17], for which the Rate constant is, setting by setting: under setting [1], 0.0347 month^−1; under setting [2], 0.0484 month^−1; under setting [3], 0.0916 month^−1; under setting [4], 0.1476 month^−1; under setting [5], 0.2169 month^−1; under setting [6], 0.0254 month^−1. For the same compound, the Rate constant reads like this: under setting [7], 0.0801 month^−1; under setting [8], 0.1563 month^−1; under setting [9], 0.2718 month^−1; under setting [10], 0.3103 month^−1; under setting [11], 0.0722 month^−1; under setting [12], 0.2323 month^−1. Besides, the Rate constant runs as follows: under setting [13], 0.3924 month^−1; under setting [14], 0.5095 month^−1; under setting [15], 0.6960 month^−1.
